{
  "source": "patent US9850483B2",
  "about": "“Methods and systems for analysis of single cells” (The Board of Trustees of the Leland Stanford Junior …, priority 2010, dated 2017)",
  "tested_on": "murine breast cancer stem cells",
  "experiment": "Clonogenic ability of murine breast cancer stem cells (colony number)",
  "assay_type": "cell-based",
  "conditions": "short, 24 hour exposure to the inhibitor; p<0.02, t test",
  "method": "Many of these genes have been linked to self renewal and cancer. These include the insulin growth factor binding partner IGFBP3, the HOX family members HOXA3, HOXA5, ME1S1 as well as transcription factors like ETS1, ETS2, RUNX2 and STAT3. It was tested whether the transcription factor STAT3 is a bona fide cancer stem cell regulator. STAT3 plays a role in the maintenance of both ES cells and HSCs. […] Next, when we examined immunochemistry analysis of breast tumors the STAT3 positive cells tended to be concentrated on the invasive edge of the cancer and the protein was not seen in the more differentiated-looking cells in the interior parts of tumors. Finally, there are small molecule inhibitors of STAT3. Such inhibitors can be tested in cancer stem cell models. The effect of the STAT3 inhibitor cucurbitacin on the clonogenic ability of murine breast cancer stem cells was tested.",
  "data": [
    {"substance": "cucurbitacin", "values": [
      {"measurement": "reduction of the number of colonies", "value": "~50", "unit": "%"}
    ]}
  ]
}
